Like-named read-outs stand apart in the source and are kept apart here.
Legend:
[1] = tested on: ORYSA=Orysa sativa, Rice; experiment: Postemergence foliar-applied herbicides and safeners in direct-seeded rice, visual injury; assay type: in vivo; conditions: foliar; for Visual Injury (%) - 21 DAA ORYSA-‘Clearfield 171’ Obs / Visual Injury (%) - 21 DAA ORYSA-‘Neptune’ Obs / Visual Injury (%) - 21 DAA ORYSA-‘Wells’ Obs: Tables 1,2,7,8; for Visual crop injury (%) at 140 g/ha / Visual crop injury (%) at 280 g/ha: Oryza sativa, 480 h, read-out: Visual Injury (%) - 20 DAA ORYSA-‘Clearfield 171’ Obs
Excerpt: (§1) Seeds or nutlets of the desired test plant species were planted in a soil matrix prepared by mixing a loam or sandy loam soil (e.g., 28.6 percent silt, 18.8 percent clay, and 52.6 percent sand, with a pH of about 5.8 and an organic matter content of about 1.8 percent) and calcareous grit in an 80 to 20 ratio. The soil matrix was contained in plastic pots with a surface area of 84.6 square centimeters (cm^2). When required to ensure good germination and healthy plants, a fungicide treatment and/or other chemical or physical treatment was applied. The plants were grown for 8-22 days in a greenhouse with an approximate 14 hr photoperiod which was maintained at about 29° C. during the day and 26° C. during the night. Nutrients (Peters Excel 15-5-15 5-Ca 2-Mg and iron chelate) were applied in the irrigation solution as needed and water was added on a regular basis. Supplemental lighting was provided with overhead metal halide 1000-Watt lamps as necessary. The plants were employed for testing when they reached the second or third true leaf stage.
(§2) Treatments consisted of the acid or esters of 4-amino-3-chloro-5-fluoro-6-(4-chloro-2-fluoro-3-methoxy-phenyl)pyridine-2-carboxylic acid (compound A) and various safener components alone and in combination. Forms of compound A were applied on an acid equivalent basis. Safener components were applied on an active ingredient or acid equivalent basis depending on the compound.
(§3) Treatment requirements were calculated based upon the rates being tested, the concentration of active ingredient or acid equivalent in the formulation, and a 12 mL application volume at a rate of 187 L/ha.
(§4) For treatments comprised of formulated compounds, measured amounts of compounds were placed individually in 25 mL glass vials and diluted in a volume of 1.25% (v/v) Agri-dex crop oil concentrated to obtain 12× stock solutions. […] Application solutions were prepared by adding an appropriate amount of each stock solution (e.g., 1 mL) and diluted to the appropriate final concentrations with the addition of 10 mL of an aqueous mixture of 1.25% (v/v) Agri-dex crop oil concentrate so that the final spray solutions contained 1.25% (v/v) Agri-dex crop oil concentrate.
(§5) For treatments comprised of technical compounds, weighed amounts were placed individually in 25 mL glass vials and dissolved in a volume of 97:3 v/v acetone/DMSO to obtain 12× stock solutions. […] Application solutions were prepared by adding an appropriate amount of each stock solution (e.g., 1 mL) and diluted to the appropriate final concentrations with the addition of 10 mL of an aqueous mixture of 1.5% (v/v) Agri-dex crop oil concentrate so that the final spray solutions contained 1.25% (v/v) Agri-dex crop oil concentrate. When technical materials were used, the concentrated stock solutions were added to the spray solutions so that the final acetone and DMSO concentrations of the application solutions were […], respectively.
(§6) For treatments comprised of formulated and technical compounds, weighed amounts of the technical materials were placed individually in 25 mL glass vials and dissolved in a volume of 97:3 v/v acetone/DMSO to obtain 12× stock solutions, and measured amounts of the formulated compounds were placed individually in 25 mL glass vials and diluted in a volume of 1.5% (v/v) Agri-dex crop oil concentrate or water to obtain 12× stock solutions. […] Application solutions were prepared by adding an appropriate amount of each stock solution (e.g., 1 mL) and diluted to the appropriate final concentrations with the addition of an appropriate amount of an aqueous mixture of 1.5% (v/v) Agri-dex crop oil concentrate so that the final spray solutions contained 1.25% (v/v) Agri-dex crop oil concentrate. When required, additional water and/or 97:3 v/v acetone/DMSO was added to individual application solutions so that the final acetone and DMSO concentrations of the application solutions being compared were 8.1% and 0.25%, respectively. […]

[2] = tested on: ECHCG=Echinochloa crus-galli; experiment: Postemergence foliar-applied herbicides and safeners, visual injury of weed; assay type: in vivo; conditions: foliar; for pest or weed control at 280 g/ha / pest or weed control at 140 g/ha: Echinochloa crus-galli, 480 h, read-out: Visual Injury (%) - 20 DAA ECHCG Obs
Excerpt: as §1, §2, §3, §4, §5, §6

[3] = safener 140 g ai/ha alone, trial of Tables 3,4,6,10,12,14
[4] = safener 280 g ai/ha alone, trial of Tables 3,4,6,10,12,14
[5] = safener 140 g ai/ha alone, trial of Tables 5,9,11,13
[6] = safener 280 g ai/ha alone, trial of Tables 5,9,11,13

SMILES	Visual crop injury (%) at 140 g/ha [1, 3] [%]	Visual crop injury (%) at 280 g/ha [1, 4] [%]	Visual Injury (%) - 20 DAA ECHCG Obs [2, 4] [%]	Visual crop injury (%) at 140 g/ha [1, 5] [%]	Visual crop injury (%) at 280 g/ha [1, 6] [%]	pest or weed control at 140 g/ha [2, 5] [%]	pest or weed control at 280 g/ha [2, 6] [%]	Visual Injury (%) - 20 DAA ECHCG Obs [2, 3] [%]	also measured
CCCCCC(C)OC(=O)COc1ccc(Cl)c2cccnc12 (centres unmarked) [Cloquintocet-mexyl]									Visual Injury (%) - 21 DAA ORYSA-‘Clearfield 171’ Obs ([1]; safener 70 g ai/ha alone): 0%; Visual Injury (%) - 21 DAA ORYSA-‘Neptune’ Obs ([1]; safener 70 g ai/ha alone): 0%; Visual Injury (%) - 21 DAA ORYSA-‘Wells’ Obs ([1]; safener 70 g ai/ha alone): 0%; Visual Injury (%) - 21 DAA ORYSA-‘Clearfield 171’ Obs ([1]; safener 140 g ai/ha alone): 0%; Visual Injury (%) - 21 DAA ORYSA-‘Neptune’ Obs ([1]; safener 140 g ai/ha alone): 0%; Visual Injury (%) - 21 DAA ORYSA-‘Wells’ Obs ([1]; safener 140 g ai/ha alone): 0%; Visual Injury (%) - 21 DAA ORYSA-‘Neptune’ Obs ([1]; safener 280 g ai/ha alone): 0%; Visual Injury (%) - 21 DAA ORYSA-‘Wells’ Obs ([1]; safener 280 g ai/ha alone): 0%
Cc1ccc(NC(=O)NC(C)(C)c2ccccc2)cc1 [Daimuron, N-(4-methylphenyl)-N′-(1-methyl-1-phenylethyl)-urea]									Visual Injury (%) - 21 DAA ORYSA-‘Clearfield 171’ Obs ([1]; safener 70 g ai/ha alone): 0%; Visual Injury (%) - 21 DAA ORYSA-‘Neptune’ Obs ([1]; safener 70 g ai/ha alone): 0%; Visual Injury (%) - 21 DAA ORYSA-‘Wells’ Obs ([1]; safener 70 g ai/ha alone): 0%; Visual Injury (%) - 21 DAA ORYSA-‘Clearfield 171’ Obs ([1]; safener 140 g ai/ha alone): 0%; Visual Injury (%) - 21 DAA ORYSA-‘Neptune’ Obs ([1]; safener 140 g ai/ha alone): 0%; Visual Injury (%) - 21 DAA ORYSA-‘Wells’ Obs ([1]; safener 140 g ai/ha alone): 0%; Visual Injury (%) - 21 DAA ORYSA-‘Neptune’ Obs ([1]; safener 280 g ai/ha alone): 0%; Visual Injury (%) - 21 DAA ORYSA-‘Wells’ Obs ([1]; safener 280 g ai/ha alone): 0%
C=CCN(CC=C)C(=O)C(Cl)Cl [Dichlormid, N,N-diallyl-2,2-dichloroacetamide]	0	0							pest or weed control at 280 g/ha [2, 4]: 0%
CC1(C)CN2C(=O)CCC2(C)N(C(=O)C(Cl)Cl)C1 (centres unmarked) [Dicyclonon]			0						Visual Injury (%) - 20 DAA ORYSA-‘Clearfield 171’ Obs [1, 3]: 0%; Visual Injury (%) - 20 DAA ORYSA-‘Clearfield 171’ Obs [1, 5]: 0%; Visual Injury (%) - 20 DAA ORYSA-‘Clearfield 171’ Obs [1, 4]: 3%; Visual Injury (%) - 20 DAA ORYSA-‘Clearfield 171’ Obs [1, 6]: 0%; Visual Injury (%) - 20 DAA ECHCG Obs [2, 6]: 3%
CC(C)(SC(=O)N1CCCCC1)c1ccccc1 [Dimepiperate, S-(1-methyl-1-phenylethyl)1-piperidine-carbothioate, reference compound]	7	3							pest or weed control at 140 g/ha [2, 3]: 0%; pest or weed control at 280 g/ha [2, 4]: 0%
Clc1cc(Cl)nc(-c2ccccc2)n1 [Fenclorim, 4,6-dichloro-2-phenylpyrimidine, reference compound]	0	0	0	0	0	0	0	0	
CC1(C)OC(c2ccco2)CN1C(=O)C(Cl)Cl (centres unmarked) [Furilazole, 3-(dichloroacetyl)-5-(2-furanyl)-2,2-dimethyl-oxazolidine, reference compound]	7	18	0	0	0	0	0	0	
O=C1OC(=O)c2cccc3cccc1c23 [Naphthalic anhydride, 1H,3H-naphtho[1,8-cd]pyran-1,3-dione, reference compound]	0	0	0	0	3	0	0	0	

Source: patent US10172355B2, “Safened herbicidal compositions including 4-amino-3-chloro-5-fluoro-6-(4-chloro-2-fluoro-3-methoxyphenyl)pyridine-2-carboxylic acid or a derivative thereof for use in rice” (Dow AgroSciences LLC, priority 2012, dated 2019)
